# Patent US11766470B2, “Manufacture, formulation and dosing of apraglutide” (VectivBio AG, priority 2020, dated 2023)
# “And” between values parts separate entries of the source, which are not always exact repeats. Equal entries are not always repeated. Square brackets hold non-standard residues; d marks the D form. Peptide text beside a SMILES is read from it. ξ: configuration not given here. Ile(3ξ) = CCC(C)[C@H](N)C(=O)O; Thr(3ξ) = CC(O)[C@H](N)C(=O)O; Nle = CCCC[C@H](N)C(=O)O
# Tested on: patients with SBS-IF or SBS-II
# Experiment: Phase 2 open-label metabolic balance trial in SBS-IF and SBS-II patients (Example 6): 72-hour metabolic balance, body composition, plasma L-citrulline
# Type: in vivo, human
# Conditions: 5 mg once weekly, 4 weeks
# Protocol: Treatment with glucagon-like peptide-2 (GLP-2) analogs promotes intestinal adaptation in patients with short bowel syndrome (SBS). Apraglutide is a novel long-acting GLP-2 analog designed to enable once weekly dosing. This Phase 2 trial investigated the safety and efficacy of once weekly 5 mg apraglutide in patients with SBS intestinal failure (SBS-IF) and SBS intestinal insufficiency (SBS-II). In this open-label trial, 8 adult patients with SBS-IF (n=4) or SBS-II (n=4) and a fecal wet weight of >1500 g/day were treated with once weekly subcutaneous 5 mg apraglutide for 4 weeks. Safety was the primary endpoint. As secondary endpoints changes were examined from baseline in intestinal absorption of wet weight, energy (measured by bomb calorimetry) and electrolytes as well as fecal wet weight and urine production using 72-hour metabolic balance studies. Common treatment-related adverse events were consistent with the physiological effect of GLP-2 and included reduced stoma output (n=6), stoma complication (n=6), nausea (n=5), flatulence (n=4), polyuria (n=3) and abdominal pain (n=3).
# A total of nine adult patients (aged ≥18 to ≤80 years) with SBS were screened, eight of whom enrolled in the trial: four patients had SBS-II and four patients had SBS-IF. Both subgroups of patients were included to investigate the safety and efficacy of apraglutide across the disease spectrum. Patient eligibility was assessed during a screening visit. Main inclusion criteria were SBS secondary to surgical resection of the small intestine with or without colon; at least six months since last surgical bowel resection; and a severe degree of malabsorption, defined as a fecal wet weight output≥1,500 g/day and a urine volume production<2000 mL/day.
# Fecal output and urine volume production were confirmed during baseline examinations. Patients were excluded if they had clinical signs of active inflammatory bowel disease, a history of cancer within five years or an inadequate hepatic-, kidney- or heart function.
# The contents of the buckets were weighed, processed intro dry matter, and analyzed as previously described: energy by bomb calorimetry, nitrogen by Kjeldahl's method, lipid by a modified Van de Kamer titration technique, carbohydrate by Englyst's method, sodium and potassium by flame photometry and calcium and magnesium by atomic absorption spectrometry. A 24-hour average was calculated based on the three 24-hour periods. Absolute changes were calculated as the difference between the baseline and the post-treatment value. Relative changes were calculated as absolute changes divided by baseline values multiplied by 100.
# Body weight was measured using a levelled platform scale. Body composition was measured by dual-energy x-ray absorptiometry (Norland XR-36 DXA densitometer, Norland, Ford Atkinson, WI, USA) at baseline and post-treatment.
# Blood samples for analysis of the plasma concentration of apraglutide and plasma concentration of fasting L-citrulline, a marker of enterocyte mass, were collected at baseline, during first and second injection (pre-dose and at sequential timepoints), four days after first injection and at the end of treatment. Blood sampling for apraglutide pharmacokinetics was also performed after the fourth and last injection covering 96 hours. […] Blood samples for anti-apraglutide antibodies were collected at baseline, at the end of treatment and at the 4-6 weeks follow-up visit. All eight patients tested negative for anti-apraglutide antibodies at baseline.
# The primary endpoint of this trial was safety. Secondary endpoints were absolute and relative changes from baseline in dietary intake, fecal excretion and absorption of wet weight, energy, macronutrients and electrolytes, urine production, urine electrolyte excretion, body weight, body composition, bone mineral content, plasma L-citrulline as well as pharmacokinetic profiles. […]
compound,measurement,setting,value
"CCCC[C@H](NC(=O)[C@H](CCC(=O)O)NC(=O)[C@H](CC(=O)O)NC(=O)[C@H](CO)NC(=O)[C@H](Cc1ccccc1)NC(=O)[C@H](CO)NC(=O)CNC(=O)[C@H](CC(=O)O)NC(=O)CNC(=O)[C@@H](N)Cc1c[nH]cn1)C(=O)N[C@H](Cc1ccccc1)C(=O)N[C@H](C(=O)N[C@H](C(=O)N[C@@H](CC(C)C)C(=O)N[C@@H](CC(=O)O)C(=O)N[C@@H](CC(C)C)C(=O)N[C@@H](CC(C)C)C(=O)N[C@@H](C)C(=O)N[C@@H](C)C(=O)N[C@@H](CCCNC(=N)N)C(=O)N[C@@H](CC(=O)O)C(=O)N[C@@H](Cc1ccccc1)C(=O)N[C@H](C(=O)N[C@@H](CC(N)=O)C(=O)N[C@@H](Cc1c[nH]c2ccccc12)C(=O)N[C@@H](CC(C)C)C(=O)N[C@H](C(=O)N[C@@H](CCC(N)=O)C(=O)N[C@H](C(=O)N[C@@H](CCCCN)C(=O)N[C@H](C(=O)N[C@H](C(=O)N[C@@H](CC(=O)O)C(N)=O)C(C)O)C(C)CC)C(C)O)C(C)CC)C(C)CC)C(C)CC)C(C)O (stereo partly drawn) [apraglutide, L-histidyl-glycyl-L-aspartyl-glycyl-L-seryl-L-phenylalanyl-L-seryl-L-aspartyl-L-glutamyl-L-norleucyl-D-phenylalanyl-L-threonyl-Lisoleucyl-L-leucyl-L-aspartyl-L-leucyl-L-leucyl-L-alanyl-L-alanyl-L-arginyl-L-aspartyl-L-phenylalanyl-L-isoleucyl-L-asparaginyl-Ltryptophanyl-L-leucyl-L-isoleucyl-L-glutaminyl-L-threonyl-L-lysyl-L-isoleucyl-L-threonyl-Laspartic acid amide] (H-HGDGSFSDE[Nle][dF][Thr(3ξ)][Ile(3ξ)]LDLLAARDF[Ile(3ξ)]NWL[Ile(3ξ)]Q[Thr(3ξ)]K[Ile(3ξ)][Thr(3ξ)]D-NH2)",Body weight increase from baseline,,1.8 kg
same,Bone mineral content change from baseline,,-20 g
same,"Calcium, absorption, change from baseline",,11 (−13 to 35); mmol/day
same,"Calcium, dietary intake, change from baseline",,−2 (−5 to 2); mmol/day
same,"Calcium, fecal output, change from baseline",,−13 (−36 to 11); mmol/day
same,"Calcium, urine excretion, change from baseline",,0 (−1 to 1) mmol/day
same,"Carbohydrate, absorption, change from baseline",,518 (112 to 924); kJ/day
same,"Carbohydrate, dietary intake, change from baseline",,154 (−268 to 575); kJ/day
same,"Carbohydrate, fecal output, change from baseline",,−365 (−772 to 43); kJ/day
same,"Energy, dietary intake, change from baseline",,"154 (−1,006 to 1,314); kJ/day"
same,Fat mass decrease from baseline,,1.1 kg
same,Lean body mass increase from baseline,,1.7 kg
same,"Lipid, absorption, change from baseline",,376 (61 to 691); kJ/day
same,"Lipid, dietary intake, change from baseline",,67 (−638 to 771); kJ/day
same,"Lipid, fecal output, change from baseline",,−309 (−969 to 351) kJ/day
same,"Magnesium, absorption, change from baseline",,0 (−9 to 9); mmol/day
same,"Magnesium, dietary intake, change from baseline",,1 (−2 to 3); mmol/day
same,"Magnesium, fecal output, change from baseline",,0 (−9 to 9); mmol/day
same,"Magnesium, urine excretion, change from baseline",,"1 (−1 to 2), mmol/day"
same,"Plasma L-citrulline, absolute increase from baseline",,15.2 µmol/L
same,"Plasma L-citrulline, relative increase from baseline",,66%
same,"Potassium, absorption, change from baseline",,18 (4 to 32; p < 0.05) mmol/day and 18 (4 to 32); mmol/day
same,"Potassium, dietary intake, change from baseline",,4 (−5 to 12); mmol/day
same,"Potassium, fecal output, change from baseline",,−15 (−32 to 3); mmol/day
same,"Potassium, urine excretion, change from baseline",,13 (6 to 20); mmol/day
same,"Protein, absorption, change from baseline",,104 (−205 to 412); kJ/day
same,"Protein, dietary intake, change from baseline",,−41 (−274 to 191); kJ/day
same,"Protein, fecal output, change from baseline",,−145 (−497 to 207); kJ/day
same,"Sodium, absorption, change from baseline",,38 (3 to 74; p < 0.05) mmol/day and 38 (3 to 74); mmol/day
same,"Sodium, dietary intake, change from baseline",,−5 (−30 to 21); mmol/day
same,"Sodium, fecal output, change from baseline",,−43 (−92 to 6); mmol/day
same,"Sodium, urine excretion, change from baseline",,27 (5 to 49); mmol/day
same,"Wet weight, absorption, change from baseline",,"741 (194 to 1287; p < 0.05) g/day and 741 (194 to 1,287); g/day"
same,"Wet weight, dietary intake, change from baseline",,61 (−84.0 to 207); g/day
same,"Wet weight, fecal output, change from baseline",,"−680 (−1200 to −159; p < 0.05) ^ g/day and −680 (−1,200 to −159); g/day"
same,"Wet weight, urine (urine production), change from baseline",,"560 (72 to 1048; p < 0.05) g/day and 560 (72 to 1,048); g/day"
same,"Energy, absorption, change from baseline",bomb calorimetry,"1,095 kJ/day"
same,"Potassium, absorption, change from baseline",listed as Apraglutide,18 mmol/day
same,"Potassium, urine excretion, change from baseline",listed as Apraglutide,13 mmol/day
same,"Sodium, absorption, change from baseline",listed as Apraglutide,38 mmol/day
same,"Sodium, urine excretion, change from baseline",listed as Apraglutide,27 mmol/day
same,"Wet weight, absorption, change from baseline",listed as Apraglutide,741 g/day
same,"Wet weight, fecal output, change from baseline",listed as Apraglutide,-680 g/day
